Where “and” joins values, the source holds several entries; their conditions need not be identical. Equal values may be shown once. Toxic doses and inconclusive results are not listed. Rule as the data show it: active = T/C of 150% or more; inactive = T/C below 125%.
Tested on: L1210 leukemia ip in BDF1 mice, survival T/C
Experiment: NCI In Vivo Anticancer Drug Screen. Data for tumor model L1210 Leukemia (intraperitoneal) in B6D2F1 (BDF1) mice
Settings: endpoint: mean survival time, higher = longer survival
How it was run: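 Survival endpoint. Drug-treated group vs vehicle group, expressed as T divided by C. Tumor passaged by transplantation.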

[1] = dose: 50.0 mg/kg/injection, schedule: Q01DX001 (ip), vehicle: saline
[2] = dose: 100.0 mg/kg/injection, schedule: Q01DX001 (ip), vehicle: saline
[3] = dose: 200.0 mg/kg/injection, schedule: Q01DX001 (ip), vehicle: saline
[4] = dose: 400.0 mg/kg/injection, schedule: Q01DX001 (ip), vehicle: saline
[5] = dose: 100.0 mg/kg/injection, schedule: Q01DX009 (ip), vehicle: saline with Tween-80
[6] = dose: 200.0 mg/kg/injection, schedule: Q01DX009 (ip), vehicle: saline with Tween-80
[7] = dose: 400.0 mg/kg/injection, schedule: Q01DX009 (ip), vehicle: saline with Tween-80
[8] = dose: 100.0 mg/kg/injection, schedule: Q04DX002 (ip), vehicle: Klucel (hydroxypropylcellulose) (HPC)
[9] = dose: 200.0 mg/kg/injection, schedule: Q04DX002 (ip), vehicle: Klucel (hydroxypropylcellulose) (HPC)
[10] = dose: 400.0 mg/kg/injection, schedule: Q04DX002 (ip), vehicle: Klucel (hydroxypropylcellulose) (HPC)
[11] = dose: 100.0 mg/kg/injection, schedule: Q04DX003 (ip), vehicle: saline with Tween-80
[12] = dose: 400.0 mg/kg/injection, schedule: Q04DX003 (ip), vehicle: saline with Tween-80
[13] = dose: 150.0 mg/kg/injection, schedule: Q01DX001 (ip), vehicle: saline
[14] = dose: 200.0 mg/kg/injection, schedule: Q04DX003 (ip), vehicle: saline with Tween-80

Measured: T/C

COC(c1ccccc1)(c1ccccc1)N(C)C
inactive: [1] 97 % of control | [2] 105 % of control | [3] 97 % of control | [4] 94 % of control

Cc1ccc(CCn2cnc3c(=S)nc[nH]c32)cc1
inactive: [1] 98 % of control | [2] 93 % of control | [3] 104 % of control | [4] 93 % of control

CC1(C)N=C(N)N=C(N)N1c1cccc(OCCOc2ccccc2N)c1
inactive: dose: 25.0 mg/kg/injection, schedule: Q01DX001 (ip), vehicle: Klucel (hydroxypropylcellulose) (HPC) 101 % of control | dose: 50.0 mg/kg/injection, schedule: Q01DX001 (ip), vehicle: Klucel (hydroxypropylcellulose) (HPC) 101 % of control | dose: 100.0 mg/kg/injection, schedule: Q01DX001 (ip), vehicle: Klucel (hydroxypropylcellulose) (HPC) 98 % of control

Oc1c(Cl)cc(Cl)cc1C=NCC1CCC(CN=Cc2cc(Cl)cc(Cl)c2O)CC1 (configuration not stated)
inactive: [5] 92 % of control | [6] 92 % of control | [7] 94 % of control

NC(CSS(=O)(=O)O)=NCCN1CCNC1=O
inactive: [8] 100 % of control | [9] 100 % of control | [10] 97 % of control

CCC/C(=N\Nc1ccc([N+](=O)[O-])cc1[N+](=O)[O-])c1ccccc1
inactive: [11] 91 % of control | [12] 86 % of control

O=C(N/N=C/c1ccccc1Cl)c1cccc2ccccc12
inactive: [2] 92 % of control | [3] 101 % of control | [4] 103 % of control

CC(=O)c1ccc(N=Nc2c(N)nc(N)nc2N)cc1
inactive: [2] 94 % of control | [3] 94 % of control | [4] 94 % of control

O=C(O)c1c(O)cc(=O)oc1-c1ccccc1Cl
inactive: dose: 75.0 mg/kg/injection, schedule: Q01DX001 (ip), vehicle: saline 97 % of control | [13] 101 % of control | dose: 300.0 mg/kg/injection, schedule: Q01DX001 (ip), vehicle: saline 96 % of control

Cc1ccc(S(=O)(=O)/C=C(/I)c2ccccc2)cc1
inactive: [5] 104 % of control | [11] 95 % of control | [6] 100 % of control | [14] 92 % of control | [7] 94 % of control | [12] 104 % of control

COc1ccc([N+](=O)[O-])cc1NS(=O)(=O)c1ccc2ccccc2c1
inactive: [8] 104 % of control | [9] 100 % of control | [10] 115 % of control

CC(C)N(C)N=Nc1n[nH]nc1C(N)=O
inactive: dose: 200.0 mg/kg/injection, schedule: Q01DX Z (ip), vehicle: carboxymethylcellulose (CMC) 104 % of control

CSc1nc(N)nc2c1ncn2C1OC(CO)CC1O (configuration not stated)
inactive: [2] 107 % of control | [3] 104 % of control | [4] 115 % of control

NNc1ccc(Cl)c(S(=O)(=O)O)c1
inactive: dose: 100.0 mg/kg/injection, schedule: Q01DX009 (ip), vehicle: saline 100 % of control | dose: 100.0 mg/kg/injection, schedule: Q04DX003 (ip), vehicle: alcohol 98 % of control | dose: 200.0 mg/kg/injection, schedule: Q01DX009 (ip), vehicle: saline 100 % of control | dose: 200.0 mg/kg/injection, schedule: Q04DX003 (ip), vehicle: alcohol 104 % of control | dose: 400.0 mg/kg/injection, schedule: Q01DX009 (ip), vehicle: saline 103 % of control | dose: 400.0 mg/kg/injection, schedule: Q04DX003 (ip), vehicle: alcohol 106 % of control

CCOC(=O)C1(C(=O)OCC)CCC(OCC)N1C(=O)c1cc2c(cc1[N+](=O)[O-])OCO2 (configuration not stated)
inactive: dose: 100.0 mg/kg/injection, schedule: Q04DX003 (ip), vehicle: Klucel (hydroxypropylcellulose) (HPC) 99 % of control | dose: 200.0 mg/kg/injection, schedule: Q04DX003 (ip), vehicle: Klucel (hydroxypropylcellulose) (HPC) 105 % of control | dose: 400.0 mg/kg/injection, schedule: Q04DX003 (ip), vehicle: Klucel (hydroxypropylcellulose) (HPC) 97 % of control

CC1CC(=O)NC(N)=N1 (configuration not stated)
inactive: dose: 100.0 mg/kg/injection, schedule: Q01DX Z (ip), vehicle: saline 110 % of control | dose: 200.0 mg/kg/injection, schedule: Q01DX Z (ip), vehicle: saline 92 % of control

O=C(O)[C@H](O)[C@@H](O)C(=O)O.[Ga]
inactive: [2] 106 % of control | [3] 100 % of control | [4] 104 % of control

CCN(CC)c1ccc(SC#N)cc1
inactive: [2] 101 % of control

Cc1ccccc1N1C(=O)c2ccccc2C1=O
inactive: dose: 100.0 mg/kg/injection, schedule: Q01DX009 (ip), vehicle: Klucel (hydroxypropylcellulose) (HPC) 95 % of control | [8] 96 % of control | dose: 200.0 mg/kg/injection, schedule: Q01DX009 (ip), vehicle: Klucel (hydroxypropylcellulose) (HPC) 98 % of control | [9] 86 % of control | dose: 400.0 mg/kg/injection, schedule: Q01DX009 (ip), vehicle: Klucel (hydroxypropylcellulose) (HPC) 98 % of control | [10] 93 % of control

Nc1nc2nc(-c3ccccc3)nc(N)c2nc1-c1ccc(N(CCO)CCO)cc1
inactive: dose: 45.0 mg/kg/injection, schedule: Q01DX001 (ip), vehicle: saline 102 % of control | dose: 67.0 mg/kg/injection, schedule: Q01DX001 (ip), vehicle: saline 108 % of control | [13] 91 % of control | [3] 95 % of control | [4] 95 % of control

O=C(O)C1CCCN1[N+](=O)[O-] (configuration not stated)
inactive: [2] 100 % of control | [3] 104 % of control | [4] 110 % of control

[O-][n+]1ccccc1F
inactive: dose: 5.0 mg/kg/injection, schedule: Q01DX001 (ip), vehicle: saline 100 % of control | dose: 10.0 mg/kg/injection, schedule: Q01DX001 (ip), vehicle: saline 102 % of control | dose: 20.0 mg/kg/injection, schedule: Q01DX001 (ip), vehicle: saline 103 % of control | dose: 40.0 mg/kg/injection, schedule: Q01DX001 (ip), vehicle: saline 96 % of control | dose: 80.0 mg/kg/injection, schedule: Q01DX001 (ip), vehicle: saline 98 % of control

O=C1C2C3C=CC(C3)C2C(=O)N1c1ccccc1 (configuration not stated)
inactive: [11] 96 % of control | [14] 101 % of control | [12] 107 % of control

Cc1cc(C)[s+]s1
inactive: dose: 12.5 mg/kg/injection, schedule: Q01DX009 (ip), vehicle: saline 94 % of control | dose: 25.0 mg/kg/injection, schedule: Q01DX009 (ip), vehicle: saline 100 % of control | dose: 50.0 mg/kg/injection, schedule: Q01DX009 (ip), vehicle: saline 103 % of control and 91 % of control | dose: 100.0 mg/kg/injection, schedule: Q04DX003 (ip), vehicle: saline 106 % of control | dose: 200.0 mg/kg/injection, schedule: Q04DX003 (ip), vehicle: saline 97 % of control

Clc1ccc(COC(Cn2ccnc2)c2ccc(Cl)cc2Cl)cc1 (configuration not stated)
inactive: dose: 25.0 mg/kg/injection, schedule: Q04DX002 (ip), vehicle: DMSO 93 % of control | dose: 50.0 mg/kg/injection, schedule: Q04DX002 (ip), vehicle: DMSO 93 % of control | dose: 100.0 mg/kg/injection, schedule: Q04DX002 (ip), vehicle: DMSO 97 % of control

[C-]#[N+]C(C)(c1ccccc1)c1ccccc1
inactive: dose: 12.5 mg/kg/injection, schedule: Q01DX001 (ip), vehicle: acetone 92 % of control | dose: 25.0 mg/kg/injection, schedule: Q01DX001 (ip), vehicle: acetone 95 % of control | dose: 50.0 mg/kg/injection, schedule: Q01DX001 (ip), vehicle: acetone 110 % of control

CCN(CC)CCN(C#N)Cc1ccccc1
inactive: dose: 75.0 mg/kg/injection, schedule: Q01DX001 (ip), vehicle: carboxymethylcellulose (CMC) 102 % of control

Cc1ccc(C(O)c2ccccc2)cc1 (configuration not stated)
inactive: [5] 98 % of control | [6] 97 % of control
